Experimental data published in paper PMC3578762, “Mutational Analysis of the High-Affinity Zinc Binding Site Validates a Refined Human Dopamine Transporter Homology Model” (PLoS Computational Biology, 2013).
Several values for one entry are separate records, joined by “and”; a condition that tells them apart may be missing. Identical values can stand only once. Like-named read-outs stand apart in the source and are kept apart here.

What was measured:
DAT (D206C) = biological target: T1, DAT (D206C) (Homo sapiens, UniProt Q01959, D206C); assay: Zinc inhibition of [3H]MPP+ uptake in HEK293 cells transiently expressing DAT-D206C; format: cell-based
T1 construct: expressed in transfected cells; host or cells: HEK293 (transient, calcium phosphate)
T1 sequence (Q01959 whole entry D206C): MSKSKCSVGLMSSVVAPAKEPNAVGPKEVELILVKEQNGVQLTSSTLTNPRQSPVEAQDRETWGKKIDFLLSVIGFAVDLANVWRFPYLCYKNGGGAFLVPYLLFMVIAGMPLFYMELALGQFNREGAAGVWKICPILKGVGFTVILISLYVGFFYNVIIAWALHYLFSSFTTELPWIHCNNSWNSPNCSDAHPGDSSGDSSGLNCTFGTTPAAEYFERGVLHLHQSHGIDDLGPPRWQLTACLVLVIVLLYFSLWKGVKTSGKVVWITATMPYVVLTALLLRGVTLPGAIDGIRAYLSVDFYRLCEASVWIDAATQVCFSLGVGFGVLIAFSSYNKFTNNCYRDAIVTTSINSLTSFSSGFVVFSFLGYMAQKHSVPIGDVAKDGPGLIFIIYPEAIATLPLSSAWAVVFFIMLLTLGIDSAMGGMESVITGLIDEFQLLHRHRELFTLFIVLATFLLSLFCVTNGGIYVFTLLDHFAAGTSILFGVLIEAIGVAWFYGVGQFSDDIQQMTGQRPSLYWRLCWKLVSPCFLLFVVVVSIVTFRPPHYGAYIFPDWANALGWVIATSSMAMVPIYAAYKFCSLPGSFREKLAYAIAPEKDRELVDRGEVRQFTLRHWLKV
Procedure: (§1) Wild-type human DAT was generously donated by Marc G. Caron; DAT H193K was a generous gift from Ulrik Gether. Wild-type and mutant DAT were YFP tagged at their N-terminus as described in Egana et al.. Mutagenesis was performed using the Quickchange Lightning Kit by Agilent Technologies. Primers were designed using the “quickchange primer design tool” by Agilent. Primers used were: D206K: (5′-3′): […]; D206C: (5′-3′): […].
(§2) HEK293 cells were cultured in Dulbecco's modified Eagle's medium (DMEM) with high glucose (4.5 g/liter) and L-glutamine (584 mg/liter), supplemented with 10% fetal calf serum (FCS), 100 units/ml penicillin and 100 µg/ml streptomycin. The cells were maintained at 37°C in a humidified atmosphere of 5% CO2/95% air on standard plastic culture ware. The cells were transiently transfected with 2–10 µg of plasmid DNA as required, using the calcium phosphate precipitation method.
(§3) Cells were seeded at 0.5×10^5 cells/ml into poly-D-lysine coated 48 well plates twenty-four hours after calcium phosphate transfection with either wild-type or mutant DAT. Uptakes were performed as described previously. In brief, the cell medium was aspirated and the cells were washed once with Krebs-HEPES buffer at room temperature. The washed cells were pre-incubated with Krebs-HEPES buffer in the presence of 0–10 mM ZnCl2 for 5 min at room temperature. In the first step of the assay, this buffer was replaced with Krebs-Hepes buffer containing the appropriate ZnCl2 concentration and 0.02 µM [^3H]MPP^+. After three minutes substrate uptake was stopped by exchange of the substrate containing buffer with ice-cold Krebs-Hepes buffer. […] Non-specific uptake was determined in the presence of 10 µM mazindol.
(§4) Uptake data are given by mean values ± S.E, obtained from n = 6–8 experiments. Total uptake data were corrected for non-specific uptake and expressed as a percentage of 0 mM ZnCl2 for each experiment. IC50 values were calculated for each mutant by performing non-linear regression analysis using PRISM version 4.0 (GraphPad Software, Inc., San Diego, CA).

DAT (D206A) = biological target: T2, DAT (D206A) (Homo sapiens, UniProt Q01959, D206A); assay: Zinc inhibition of [3H]MPP+ uptake in HEK293 cells transiently expressing DAT-D206A; format: cell-based; details: [3H]MPP+ uptake inhibition, mean ± S.E.
T2 construct: expressed in transfected cells; host or cells: HEK293 (transient, calcium phosphate)
T2 sequence (Q01959 whole entry D206A): as the sequence (Q01959 whole entry D206C) above, with C206A counted along it
Procedure: as §1
as §2, with “The cells were transiently transfected with 2–10 µg of plasmid DNA as required, using the calcium phosphate precipitation method.” left out
(§5) Cells were seeded at 0.5×10^5 cells/ml into poly-D-lysine coated 48 well plates twenty-four hours after calcium phosphate transfection with either wild-type or mutant DAT. […] Non-specific uptake was determined in the presence of 10 µM mazindol.
as §4

DAT = system: DAT; set-up: method as in PMID 9687495, PMID 8423763; details: synaptosomes and heterologous expression systems; cited from earlier work
DAT (wild-type) = biological target: T3, DAT (wild-type) (Homo sapiens, UniProt Q01959); assay: Zinc inhibition of [3H]MPP+ uptake in HEK293 cells transiently expressing wild-type DAT; format: cell-based; details: for IC50: [3H]MPP+ uptake inhibition, HEK293 cells, bi-phasic fit, mean ± S.E.
T3 construct: expressed in transfected cells; host or cells: HEK293 (transient, calcium phosphate)
T3 sequence (Q01959 whole entry): as the sequence (Q01959 whole entry D206C) above, with C206D counted along it
Procedure: as §2
Cells were seeded at 0.5×10^5 cells/ml into poly-D-lysine coated 48 well plates twenty-four hours after calcium phosphate transfection with either wild-type or mutant DAT. Uptakes were performed as described previously. In brief, the cell medium was aspirated and the cells were washed once with Krebs-HEPES buffer at room temperature. The washed cells were pre-incubated with Krebs-HEPES buffer in the presence of 0–10 mM ZnCl2 for 5 min at room temperature. In the first step of the assay, this buffer was replaced with Krebs-Hepes buffer containing the appropriate ZnCl2 concentration and 0.02 µM [^3H]MPP^+. After three minutes substrate uptake was stopped by exchange of the substrate containing buffer with ice-cold Krebs-Hepes buffer. The cells were lysed in 1% SDS and transferred to scintillation vials. Scintillation cocktail was added and the vials were assayed for [^3H] content by liquid scintillation counting. Non-specific uptake was determined in the presence of 10 µM mazindol.
as §4

DAT (D206K) = biological target: T4, DAT (D206K) (Homo sapiens, UniProt Q01959, D206K); assay: Zinc inhibition of [3H]MPP+ uptake in HEK293 cells transiently expressing DAT-D206K; format: cell-based; details: for IC50: [3H]MPP+ uptake inhibition, HEK293 cells, DAT D206K, mean ± S.E.
T4 construct: expressed in transfected cells; host or cells: HEK293 (transient, calcium phosphate)
T4 sequence (Q01959 whole entry D206K): as the sequence (Q01959 whole entry D206C) above, with C206K counted along it
Procedure: as §1, §2, §3, §4

DAT (D206E) = biological target: T5, DAT (D206E) (Homo sapiens, UniProt Q01959, D206E); assay: Zinc inhibition of [3H]MPP+ uptake in HEK293 cells transiently expressing DAT-D206E; format: cell-based; details: [3H]MPP+ uptake inhibition, mean ± S.E.
T5 construct: expressed in transfected cells; host or cells: HEK293 (transient, calcium phosphate)
T5 sequence (Q01959 whole entry D206E): as the sequence (Q01959 whole entry D206C) above, with C206E counted along it
Procedure: as §1
as §2, with “The cells were transiently transfected with 2–10 µg of plasmid DNA as required, using the calcium phosphate precipitation method.” left out
as §5, §4

DAT (H193K) = biological target: T6, DAT (H193K) (Homo sapiens, UniProt Q01959, H193K); assay: Zinc inhibition of [3H]MPP+ uptake in HEK293 cells transiently expressing DAT-H193K; format: cell-based; details: [3H]MPP+ uptake inhibition, homogeneous (mono-phasic) inhibition curve, mean ± S.E., read-out: Low-affinity site: IC50 (Zn^2+)
T6 construct: expressed in transfected cells; host or cells: HEK293 (transient, calcium phosphate)
T6 sequence (Q01959 whole entry H193K): as the sequence (Q01959 whole entry D206C) above, with H193K, C206D counted along it
Procedure: as §1
as §2, with “The cells were transiently transfected with 2–10 µg of plasmid DNA as required, using the calcium phosphate precipitation method.” left out
as §5, §4

[1] = read-out: High-affinity site: IC50 (Zn^2+)
[2] = read-out: Low-affinity site: IC50 (Zn^2+)

[Zn+2] [zinc]
Inhibition of transport upon saturation of the high affinity site (DAT (D206C); DAT-D206C, [3H]MPP+ uptake, HEK293 cells): almost complete inhibition of transport | Occupancy of the high affinity site predicted (DAT (D206C); DAT-D206C, at 250 µM zinc): 99% | IC50 (DAT (D206C); [3H]MPP+ uptake inhibition, HEK293 cells, DAT D206C, mean ± S.E., read-out: High-affinity site: IC50 (Zn^2+)): 6.81 ± 1.4 µM | IC50 (DAT (D206A); [1]): 0.79 ± 0.1 µM | IC50 (DAT (D206A); [2]): 219 ± 14 µM | IC50 of inhibition of dopamine re-uptake (DAT): low µM range | IC50 (DAT (wild-type); [1]): 1 µM and 0.91 µM | IC50 (DAT (wild-type); [2]): 798 ± 84 µM | Reduction of the transport rate of DAT upon zinc binding (DAT (wild-type); zinc bound to high-affinity site): ~50% | Reduction of inhibitory potency of zinc on the high-affinity component versus wild-type (DAT (D206K); DAT-D206K versus wild-type DAT): approximately three fold | IC50 (DAT (D206K); [1]): 2.54 ± 0.8 µM | IC50 (DAT (D206K); [2]): 682 ± 100 µM | IC50 (DAT (D206E); [1]): 1.22 ± 0.3 µM | IC50 (DAT (D206E); [2]): 857 ± 76 µM | IC50 (DAT (H193K)): 102 ± 8 µM
